# Data as given in PubChem BioAssay AID720587 (Broad Institute, 2013).
# Test system: A673 Ewing sarcoma viability, CellTiter-Glo ATP luminescence, 72 h
# Test: EWS/Fli1-dependent A673 cell killing, confirmation, CellTiter-Glo luminescence, cherry-pick retest (AID 720587)
row,SMILES,AC35 [µM]
1,Cc1cc(C)cc(N2C(=O)NC(=O)/C(=C\C=C\c3ccco3)C2=O)c1,3.84
2,C(=Cc1cnc2ccccc2n1)c1ccc2c(c1)OCO2,8.73
3,CCCC[C@@H]1Cc2[nH][nH]c(=O)c2[C@H](c2ccc3ccccc3c2)O1,7.67
4,CCc1nc(N)nc(N)c1-c1ccc(Cl)c(N=[N+]=[N-])c1,7.14
5,C[C@H]1CN([C@@H](C)CO)C(=O)Cc2cc(NC(=O)CCCCCC(=O)Nc3ccccc3N)ccc2O[C@H]1CN(C)Cc1ccc(C(F)(F)F)cc1,12.5
6,COC(=O)C[C@@H]1CC[C@H]2[C@H](COc3ccc(NC(=O)Nc4ccc(C#N)cc4)cc3C(=O)N2C)O1,11.3
7,CN(C)c1ccc(-c2ccnc3c2CC(C)(C(=O)NCc2ccco2)O3)cc1 (stereo unspecified),7.77
8,Nc1ccn([C@@H]2O[C@H](CO)[C@@H](O)C2O)c(=O)n1 (stereo partly specified),0.448
9,COc1cc2c(cc1OC)C(C)N(C(=O)c1cc(Cl)nc(Cl)c1)CC2 (stereo unspecified),12.1
10,C[C@@H]1CN([C@H](C)CO)C(=O)c2cc(NC(=O)Nc3ccccc3)ccc2O[C@@H]1CN(C)Cc1ccc(C(=O)Nc2ccccc2N)cc1,9.7
11,O=C(N/N=C/c1cccs1)c1n[nH]c2c1CCCC2,17.7
12,C[C@@H]1CN([C@@H](C)CO)C(=O)c2cc(NS(=O)(=O)c3ccc(Cl)cc3)ccc2O[C@@H]1CN(C)Cc1ccc(C(=O)Nc2ccccc2N)cc1,10.7
13,O=c1cc(-c2ccccc2)oc2ccc3ccccc3c12,5.83
14,Cc1ccc(C)c(S(=O)(=O)N2CCN(c3ncnc4sccc34)CC2)c1,5.35
15,CCCCc1c(-c2ccccc2OC)ncn1Cc1ccc(C(C)(C)C)cc1,11.8
16,CC1(C)Oc2cc3oc(-c4cc(O)cc(O)c4)cc3cc2CC1O (stereo unspecified),21.7
17,Nc1nc(=S)c2[nH]cnc2[nH]1,0.814
18,Cc1ccc(OCCNC(=O)c2cccc(S(=O)(=O)NCc3ccccc3)c2)cc1,4.65
19,CC(C)CC#Cc1ccc([C@@H]2[C@@H](CO)N3CCCCN(S(=O)(=O)c4ccc(F)cc4)C[C@H]23)cc1,8.8
20,CCC1=Nc2cc(C(=O)NCC3CCCO3)ccc2Sc2ccc(Br)cc21 (stereo unspecified),4.39
21,COc1ccc(-c2cn(-c3ccc(OC)cc3)c3[n+]2-c2ccccc2CC3)cc1,13.6
22,C=C1C(=O)C=C[C@]2(C)C[C@@H]3OC(=O)[C@](C)(O)[C@H]3C[C@@H]12,4.67
23,COc1ccc(-c2nc3c(s2)CCc2onc(-c4ccc(OC)cc4)c2-3)cc1,8

row,SMILES,AC35 [µM]
1,Cc1cc(C(=O)Nc2ccc3c(c2)C(=O)N(C)[C@@H]2CC[C@H](CC(=O)N[C@H](C)c4ccccc4)O[C@H]2CO3)no1,12.9
2,CC12CCC3C(CCC4(O)CC(O)CCC34C=NO)C1(O)CCC2C1=COC(=O)C1 (stereo unspecified),0.251
3,COc1cc(-c2noc(C)c2C#Cc2nccn2C)cc(OC)c1OC,15.9
4,CC(=O)Nc1cccc(-c2ccnc3c2CC(C)(C(=O)NCc2ccc(N(C)C)cc2)O3)c1 (stereo unspecified),13.3
5,C=C(C(=O)c1ccccc1)C(C)C(=C)C(=O)c1ccccc1,4.81
6,CN(C)C(=S)N=Nc1[nH]c2ccccc2c1O,11.1
7,C[C@@H]1CN([C@H](C)CO)C(=O)c2cc(NC(=O)c3ccccc3)ccc2O[C@@H](C)CCCCO[C@H]1CN(C)C(=O)Nc1cccc2ccccc12,2.17
8,CNC[C@H](CC1CCCCC1)NC[C@H](CO)NCCc1cccc(C(F)(F)F)c1,9.23
9,CCCCCCCCn1c2c(c(=N)c3c1CCC3)CCCC2,5.07
10,NC(Cc1ccc(C(F)(F)F)cc1)c1csc(NC(=O)Nc2ccccc2Cc2ccccc2)n1 (stereo unspecified),12.8
11,O=c1cc(CN2CCN(Cc3ccccc3)CC2)c2ccc(O)c(O)c2o1,8.02
12,COC(=O)C[C@@H]1CC[C@@H]2[C@H](COc3ccc(NC(=O)Nc4ccc(C#N)cc4)cc3C(=O)N2C)O1,23.1
13,Cc1ccc(/C=C2\SC(=S)N(CCCC(=O)NNC(=O)c3ccccc3O)C2=O)cc1,11.3
14,O=C(NC1CCCC1)N1CCCCN2[C@@H](CO)[C@@H](c3ccc(/C=C/c4ccccc4)cc3)[C@@H]2C1,7.8
15,O=C1NC(=O)N(c2ccccc2)C(=O)/C1=C\C=C\c1ccccc1,4.03
16,C[C@H](CO)N1C[C@H](C)[C@@H](CN(C)Cc2ccc(Oc3ccccc3)cc2)Oc2ccc(NS(=O)(=O)c3ccc(Cl)cc3)cc2CC1=O,16.2
17,CC1(C)N=C(N)N=C(N)N1c1ccc(CCCCc2ccccc2)cc1,0.65
18,CC1(C)N=C(N)N=C(N)N1c1ccc(OCCCOc2ccccc2)c(Cl)c1,1.48
19,CN(C)c1ccc(N=Nc2nc3ccccc3n2C)cc1,8.63
20,O=C1c2ccccc2C(=O)c2cc(N3CCCCC3)ccc21,16.8
21,COc1cccc(-c2cccc(-c3nc(C(=O)NCC(F)(F)F)cc4c3[C@H](CCO)N([S@@](=O)C(C)(C)C)C4)c2)c1,8.4
22,N#C[C@H]1[C@H](c2ccc(-c3ccccc3F)cc2)[C@@H](CO)N1C(=O)c1ccccn1,14.5
23,CCc1cccc2c(C(=O)CN3C(=O)NC4(CCCCC4)C3=O)c[nH]c12,8.95
